SMILES strings stand for the structures. Where only a bound is given, the exact number is not on record here.

This assay has as its target T1, microsomal h-COX2 (Homo sapiens, UniProt P35354).
T1 construct: made in house; host or cells: baculovirus infected SF9 cells (microsomal preparation)
T1 sequence (P35354 18-604): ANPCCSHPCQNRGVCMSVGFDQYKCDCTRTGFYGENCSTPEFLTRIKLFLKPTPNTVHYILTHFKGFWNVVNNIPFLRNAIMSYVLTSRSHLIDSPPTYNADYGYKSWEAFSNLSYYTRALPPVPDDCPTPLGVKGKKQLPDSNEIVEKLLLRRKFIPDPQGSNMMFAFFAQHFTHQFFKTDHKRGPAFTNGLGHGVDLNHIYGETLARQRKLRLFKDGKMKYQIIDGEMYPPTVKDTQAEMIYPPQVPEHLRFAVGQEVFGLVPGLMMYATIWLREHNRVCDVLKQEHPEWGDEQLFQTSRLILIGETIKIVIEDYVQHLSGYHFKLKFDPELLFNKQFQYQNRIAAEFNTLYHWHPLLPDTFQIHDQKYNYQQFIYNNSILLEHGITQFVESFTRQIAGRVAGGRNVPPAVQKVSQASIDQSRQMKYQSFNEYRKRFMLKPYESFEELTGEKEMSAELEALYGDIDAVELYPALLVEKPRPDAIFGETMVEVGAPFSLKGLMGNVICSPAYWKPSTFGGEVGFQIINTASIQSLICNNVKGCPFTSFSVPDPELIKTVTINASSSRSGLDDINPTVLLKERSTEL
Put plainly: Microsomal assay: inhibitory activity against microsomal h-COX2. The class given is biochemical. The note with it: microsomal preparation from baculovirus infected SF9 cells; 1 hour incubation with compound; 0.1 μM arachidonic acid, 10 minutes; PGE2 by EIA; read-out: IC50 values for inhibition of COX-2. As to the method:
Biological Data Microsomal Assay
Inhibitory activity against microsomal h-COX2 was assessed against a microsomal preparation from baculovirus infected SF9 cells. An aliquot of microsomal preparation was thawed slowly on ice and a 1/40,000 dilution prepared from it into the assay buffer (sterile water, degassed with argon containing 100 mM HEPES (pH 7.4), 10 mM EDTA (pH7.4), 1 mM phenol, 1 mM reduced glutathione, 20 mg/ml gelatin and 0.001 mM Hematin). Once diluted the enzyme solution was then sonicated for 5 seconds (Branson sonicator, setting 4, 1 cm tip) to ensure a homogeneous suspension. 155 μl enzyme solution was then added to each well of a 96-well microtitre plate containing either 5 μl test compound (40× required test concentration) or 5 μl DMSO for controls. Plates were then mixed and incubated at room temperature for 1 hour. Following the incubation period, 40 μl of 0.5 μM arachidonic acid was added to each well to give a final concentration of 0.1 μM. Plates were then mixed and incubated for exactly 10 minutes (room temperature) prior to addition of 25 μl 1M HCl (hydrochloric acid) to each well to stop the reaction. 25 μl of 1M NaOH (sodium hydroxide) was then added to each well to neutralise the solution prior to determination of PGE2 levels by enzyme immunoassay (EIA).
With `CS(=O)(=O)c1ccc(-c2cc(C(F)(F)F)cc(NCc3cccs3)n2)cc1` [Example 174], the concentration for half-maximal inhibition (IC50) is at most 500 nM.

In the case of `CS(=O)(=O)c1ccc(-c2cc(C(F)(F)F)cc(NCC3CCOCC3)n2)cc1` [Example 175], the IC50 was at most 500 nM.

`Cc1ccc(Nc2cc(C(F)(F)F)cc(-c3ccc(S(C)(=O)=O)cc3)n2)c(C)n1` [Example 178]: the IC50 is at most 500 nM.

With `Cc1cccc(CNc2cc(C(F)(F)F)cc(-c3ccc(S(C)(=O)=O)cc3)n2)n1` [Example 180], the IC50 is at most 500 nM.

With `Cc1ccc(Oc2cc(C(F)(F)F)cc(-c3ccc(S(C)(=O)=O)cc3)n2)c(C)n1` [Example 183], the IC50 is at most 500 nM.

For `Cc1cccc(COc2cc(C(F)(F)F)cc(-c3ccc(S(C)(=O)=O)cc3)n2)n1` [Example 184], the concentration for half-maximal inhibition (IC50) was at most 500 nM.

For the compound `Cc1ncccc1COc1cc(C(F)(F)F)cc(-c2ccc(S(C)(=O)=O)cc2)n1` [Example 185], the half-maximal inhibitory concentration (IC50) is at most 500 nM.

As for `Cc1ccc(COc2cc(C(F)(F)F)cc(-c3ccc(S(C)(=O)=O)cc3)n2)cn1` [Example 186], the IC50 is at most 500 nM.

With `Cc1nn(C)cc1CNc1cc(C(F)(F)F)cc(-c2ccc(S(C)(=O)=O)cc2)n1` [Example 187], the IC50 was at most 500 nM.

Consider `Cc1c(CNc2cc(C(F)(F)F)cc(-c3ccc(S(C)(=O)=O)cc3)n2)cnn1C` [Example 188], for which the IC50 was at most 500 nM.

Regarding `Cc1csc(CNc2cc(C(F)(F)F)cc(-c3ccc(S(C)(=O)=O)cc3)n2)n1` [Example 189], the half-inhibitory concentration (IC50) is at most 500 nM.

In the case of `CS(=O)(=O)c1ccc(-c2cc(C(F)(F)F)cc(Oc3cncc(Cl)c3)n2)cc1` [Example 190], the IC50 is at most 500 nM.

On to `CS(=O)(=O)c1ccc(-c2cc(C(F)(F)F)cc(Nc3ccc(Cl)nn3)n2)cc1` [Example 191], for which the IC50 is at most 500 nM.

On to `Cc1ccc(CNc2nc(-c3ccc(S(C)(=O)=O)cc3)cc(C)c2C#N)cn1` [Example 192], for which the IC50 is at most 500 nM.

For the compound `CCN(Cc1ccccc1)c1cc(C(F)(F)F)cc(-c2ccc(S(C)(=O)=O)cc2)n1` [Example 193], the IC50 was at most 500 nM.

As to `CCOC(=O)c1c(CC)cc(-c2ccc(S(C)(=O)=O)cc2)nc1NCc1ccccc1` [Example 197], the IC50 is at most 500 nM.

On to `CS(=O)(=O)c1ccc(-c2cc(C(F)(F)F)cc(OCc3ccc(Br)cn3)n2)cc1` [Example 200], for which the half-inhibitory concentration (IC50) is at most 500 nM.

Regarding `CS(=O)(=O)c1ccc(-c2cc(C(F)(F)F)cc(OCc3ccncc3Br)n2)cc1` [Example 201], the half-inhibitory concentration (IC50) is at most 500 nM.

Turning to `Cc1cc(NCc2conc2C)nc(-c2ccc(S(C)(=O)=O)cc2)c1` [Example 202], the concentration for half-maximal inhibition (IC50) was at most 500 nM.

For `CCc1cc(NCc2nccn2CC)nc(-c2ccc(S(C)(=O)=O)cc2)c1` [Example 204], the IC50 was at most 500 nM.

For the compound `Cc1cc(-c2ccc(S(C)(=O)=O)cc2)nc(N(C)Cc2nccn2C)c1C#N` [Example 205], the half-inhibitory concentration (IC50) was at most 500 nM.

`CS(=O)(=O)c1ccc(-c2cc(C(F)(F)F)cc(N[C@H]3CC[C@@H](C)CC3)n2)cc1` [Example 206]: the IC50 was at most 500 nM.

Regarding `CS(=O)(=O)c1ccc(-c2cc(C(F)(F)F)cc(N[C@H]3CC[C@H](C)CC3)n2)cc1` [Example 207], the concentration for half-maximal inhibition (IC50) is at most 500 nM.

Turning to `CS(=O)(=O)c1ccc(-c2cc(C(F)(F)F)cc(NCc3ccccn3)n2)cc1` [Example 208], the concentration for half-maximal inhibition (IC50) is at most 500 nM.

Turning to `CS(=O)(=O)c1ccc(-c2cc(C(F)(F)F)cc(NC3CCCCCC3)n2)cc1` [Example 209], the IC50 was at most 500 nM.

For the compound `Cc1cc(-c2ccc(S(C)(=O)=O)cc2)nc(NCc2ccccn2)c1C#N` [Example 210], the IC50 was at most 500 nM.

`CCC(CC)Nc1cc(C(F)(F)F)cc(-c2ccc(S(C)(=O)=O)cc2)n1` [Example 211]: the 50% inhibitory concentration (IC50) was at most 500 nM.

Consider `CS(=O)(=O)c1ccc(-c2cc(C(F)(F)F)cc(NC3CCC3)n2)cc1` [Example 212], for which the IC50 is at most 500 nM.

On to `Cc1noc(CNc2cc(C(F)(F)F)cc(-c3ccc(S(C)(=O)=O)cc3)n2)n1` [Example 213], for which the half-maximal inhibitory concentration (IC50) was at most 500 nM.

Take `Cc1nc(CNc2cc(C(F)(F)F)cc(-c3ccc(S(C)(=O)=O)cc3)n2)no1` [Example 214]: the half-inhibitory concentration (IC50) was at most 500 nM.

On to `CCc1cc(-c2ccc(S(C)(=O)=O)cc2)nc(OCc2ccccn2)c1C#N` [Example 217], for which the IC50 is at most 500 nM.

In the case of `Cc1cc(NCc2ccnn2C)nc(-c2ccc(S(C)(=O)=O)cc2)c1` [Example 218], the IC50 was at most 500 nM.

With `CS(=O)(=O)c1ccc(-c2cc(C(F)(F)F)cc(NCC3CCCC3)n2)cc1` [Example 219, N-(cyclopentanemethyl)-4-(trifluoromethyl)-6-[4-(methylsulfonyl)phenyl]pyridine-2-amine], the IC50 is at most 500 nM.

Take `CCc1cc(-c2ccc(S(C)(=O)=O)cc2)nc(OCc2ccccn2)c1Cl` [Example 220]: the IC50 was at most 500 nM.

Take `CCO[C@H]1CC[C@H](Nc2cc(C(F)(F)F)cc(-c3ccc(S(C)(=O)=O)cc3)n2)CC1` [Example 221]: the half-inhibitory concentration (IC50) is at most 500 nM.

As to `CCc1cc(-c2ccc(S(C)(=O)=O)cc2)nc(NCc2ccccn2)c1C#N` [Example 222, 4-Ethyl-6-[4-(methylsulfonyl)phenyl]-2-[(2-pyridinylmethyl)amino]-3-pyridinecarbonitrile], the IC50 was at most 500 nM.

As for `CCc1cc(-c2ccc(S(C)(=O)=O)cc2)nc(NCc2ccc(C)cn2)c1C#N` [Example 223], the IC50 was at most 500 nM.

With `CCc1cc(-c2ccc(S(C)(=O)=O)cc2)nc(NCc2ccc(C)nc2)c1C#N` [Example 224], the half-maximal inhibitory concentration (IC50) was at most 500 nM.

Turning to `CCc1cc(-c2ccc(S(C)(=O)=O)cc2)nc(NCc2cnn(C)c2)c1C#N` [Example 228], the IC50 was at most 500 nM.

With `CCc1cc(-c2ccc(S(C)(=O)=O)cc2)nc(NCc2nc(C)cs2)c1C#N` [Example 229], the half-maximal inhibitory concentration (IC50) is at most 500 nM.

Take `CCc1cc(-c2ccc(S(C)(=O)=O)cc2)nc(NCC2CCCCC2)c1C#N` [Example 231]: the IC50 was at most 500 nM.

For `CCc1cc(NCc2ncnn2CC)nc(-c2ccc(S(C)(=O)=O)cc2)c1` [Example 232], the IC50 was at most 500 nM.

Regarding `CCc1cc(NCc2ncnn2C)nc(-c2ccc(S(C)(=O)=O)cc2)c1` [Example 233], the IC50 was at most 500 nM.

In the case of `CCn1ncnc1CNc1cc(C)cc(-c2ccc(S(C)(=O)=O)cc2)n1` [Example 234, N-[(1-ethyl-1H-1,2,4-triazol-5-yl)methyl]-4-methyl-6-[4-(methylsulfonyl)phenyl]pyridine-2-amine], the IC50 is at most 500 nM.

With `CCn1ncnc1CNc1cc(C(F)(F)F)cc(-c2ccc(S(C)(=O)=O)cc2)n1` [Example 235], the IC50 was at most 500 nM.

As for `CCc1cc(-c2ccc(S(C)(=O)=O)cc2)nc(OCc2ccc(C)nc2)c1C#N` [Example 236, 4-Ethyl-2-{[(6-methyl-3-pyridinyl)methyl]oxy}-6-[4-(methylsulfonyl)phenyl]-3-pyridinecarbonitrile], the 50% inhibitory concentration (IC50) was at most 500 nM.

The values above are taken from patent US7446117B2, “Cox-2 inhibiting pyridine derivatives” (Glaxo Group Limited, priority 2002, dated 2008).
